The values below come from patent US7112698B2, “4-(c2-6alkoxy)-substituted chalcones as therapeutic agents” (Spear Therapeutics Limited, priority 2001, dated 2006).

Series [1] deals with K562 human leukemia cell line. As to conditions: background, antitumour activity; cited from earlier work.
Series [2] has as its system MDA-468 advanced breast cancer cell line. The series is described as follows: MDA-468 tumour cell line cytotoxicity assay. The format is cell-based, human. Particulars: for IC50: Homo sapiens, without TCDD; for Tumour Selectivity Differential Factor: IC50 MCF-10A divided by IC50 MDA-468 (Table 2). How it is done:
(§1) Cells were maintained in RPMI 1640 with Glutamax 1 (Life Technologies) with 10% (v/v) heat inactivated foetal calf serum (Hybrimax. Sigma), at 37° C., 5% CO2/95% air with 100% humidity and passaged using trypsin/EDTA. 1×10^3 cells were plated out in 100 μl medium per well of 96-well flat-bottomed plates (Fisher). […] The medium was then carefully aspirated and 100 μl fresh medium added. […] 50 μl MTT (Thiazol blue, Sigma) at 2 mg/ml in Dulbecco's phosphate buffered saline-A, was then added to each well for 3 hours. All medium was aspirated, then the formazan product generated by viable cells was solubilized with 150 μl DMSO. Plates were vortexed and the absorbance at 540 nm determined using a plate reader. […] All determinations were carried out in at least triplicate.
(§2) This cell culture based assay is performed using the two cell lines MDA-468 and MCF-10A. The MDA468 cell line is an advanced breast cancer cell line, whilst the MCF-10A cell line is a normal breast cell line.
(§3) This assay was performed using the two cell lines MDA-468 and MCF-10A according to the procedure described above for the MCF-7 assay, but without the addition of TCDD.
(§4) The tumour selectivity differential factor (TSDF) is calculated by dividing the IC50 obtained from the MCF-10A data by the IC50 obtained from the MDA-468 data.

Series [3] relates to MCF-10A normal breast cell line. The series is described as follows: MCF-10A normal cell line cytotoxicity assay. It counts as cell-based. As to conditions: Homo sapiens, without TCDD. How it is done:
as §1, §2, §3, §4

For another series, the system named is MCF-7 cells. The series is described as follows: MCF-7 cell line (non-induced) cytotoxicity assay, MTT. As to conditions: Homo sapiens, MCF7; non-induced MCF-7 cells, 96 hours, MTT; read-out: MCF-7 Cells IC50. The format is cell-based. An excerpt:
(§5) CYP1A1 and CYP1B1 enzyme activity is induced by TCDD (tetrachlorodibenzodioxin (Dioxin)) in breast tumour MCF-7 cells (see, e.g., Sutter et al., 1994). CYP1B1 is expressed in a variety of human tumours, and can be inducible by TCDD in numerous cell types including breast, liver, lung, and kidney (see, e.g., Murray et al., 1997). CYP1B1 is known to catalyse estradiol 4-hydroxylation metabolism. In untreated culture, the constitutive rate of estradiol E2 metabolism in MCF-7 cells is minimal. However, treatment with TCDD causes a marked increase in the rate of E2 metabolism (see, e.g., Spink et al., 1994). […] Therefore the cytotoxicity of compounds in non-induced MCF-7 cells correlates to the cytotoxicity of compounds against normal cells, whilst the cytotoxicity of compounds against TCDD-induced MCF-7 cells correlates to the cytotoxicity of compounds against real tumours that express CYP1B1.
(§6) The cytotoxicity of compounds in non-induced MCF-7 cells correlates to the cytotoxicity of compounds against normal cells, whilst the cytotoxicity of compounds against TCDD-induced MCF-7 cells correlates to the cytotoxicity of compounds against real tumours that express CYP1B1.
(§7) Cells were maintained in RPMI 1640 with Glutamax 1 (Life Technologies) with 10% (v/v) heat inactivated foetal calf serum (Hybrimax. Sigma), at 37° C., 5% CO2/95% air with 100% humidity and passaged using trypsin/EDTA. 1×10^3 cells were plated out in 100 μl medium per well of 96-well flat-bottomed plates (Fisher). After 4 hours to allow adherance, 100 μl of medium containing TCDD (British Greyhound Chromatography; 10 μM stock in DMSO (dimethylsulfoxide)) or medium with 0.2% (v/v) DMSO as control was added to each well to give a final concentration of 10 nM TCDD, 0.1% (v/v) DMSO, for 24 hours to allow maximal CYP expression. The medium was then carefully aspirated and 100 μl fresh medium added. Within 30 minutes test compound was added in quadruplicate in 100 μl medium (with or without inhibitors) at double the final concentration from 100 mM stock in DMSO to give a final concentration of not more than 0.1% (v/v) DMSO, or DMSO solvent alone at 0.1% (v/v) as control. The cells were then allowed to grow on for 96 hours to give 80–90% confluence in the control wells. 50 μl MTT (Thiazol blue, Sigma) at 2 mg/ml in Dulbecco's phosphate buffered saline-A, was then added to each well for 3 hours. All medium was aspirated, then the formazan product generated by viable cells was solubilized with 150 μl DMSO. Plates were vortexed and the absorbance at 540 nm determined using a plate reader. Results were expressed as the percentage of 100% (control) proliferation and the IC50 calculated using the line of best fit for a sigmoidal dose response curve with variable slope using Graphpad Prizm software. All determinations were carried out in at least triplicate.

The test system of a further series is TCDD-induced MCF-7 cells. The series is described as follows: TCDD-induced MCF-7 cell line cytotoxicity assay, MTT. It counts as cell-based, human. Particulars: for IC50: 96 hours, MTT.
From the text: as §5, §6
as §7, with “triplicate. […]” for “triplicate.”

One may read the IC50 as the point on the concentration scale where inhibition reaches its midpoint. `CC(=O)/C=C/c1ccc(O)cc1` [(E)-1-(4′-hydroxyphenyl)but-1-en-3-one]: the 50% inhibitory concentration (IC50) in series [1] is 60000 nM.

In the case of `COc1cccc2c1C(=O)c1c(O)c3c(c(O)c1C2=O)C[C@@](O)(C(=O)CO)C[C@@H]3O[C@H]1C[C@H](N)[C@H](O)[C@H](C)O1` [Doxorubicin, doxorubicin], in series [2], half-maximal inhibition (IC50) was put at 3 nM and the “Tumour Selectivity Differential Factor” value was 0.1. Further, the “more toxic to normal cells than to cancer cells” value in series [2] (MCF-10A versus MDA-468) was 10 fold. Further, 0.3 nM corresponded to half-maximal inhibition in series [3] (IC50).

Take `CCCOc1ccc(/C=C/C(=O)c2cc(OC)cc(OC)c2)cc1` [DMU-175, (E)-1-(4-propoxyphenyl)-3-(3,5-dimethoxyphenyl)prop-1-en-3-one]: the IC50 was 1400 nM in series [2]; 15000 nM in the series with MCF-7 cells; 540 nM in the series on TCDD-induced MCF-7 cells (Homo sapiens, MCF7, MCF-7 cells induced with 10 nM TCDD for 24 hours); 500 nM in the series on TCDD-induced MCF-7 cells (MCF-7 cells induced with 10 nM TCDD for 24 hours); 16000 nM in series [3]. The “Tumour Selectivity Differential Factor” value stood at 11 in series [2] and 30 in the series on TCDD-induced MCF-7 cells (MCF-7 IC50 versus TCDD-induced MCF-7 IC50 (Table 1)). Moreover, in series [2] (MDA-468 versus MCF-10A), the “more toxic to cancer cells than to normal cells (tumour selectivity)” value is on record as 11 fold. In the series with TCDD-induced MCF-7 cells (FIG. 1, un-induced versus TCDD-induced MCF-7 cells), the “increase in the cytotoxic activity by the induction of CYP1B1” value was found to be 28 fold. The “more toxic to “tumour” cells than to “normal” cells” value in the series with TCDD-induced MCF-7 cells (TCDD-induced MCF-7 versus MCF-7) is given as 30 fold.

For `CN(Cc1cnc2nc(N)nc(N)c2n1)c1ccc(C(=O)N[C@@H](CCC(=O)O)C(=O)O)cc1` [Methotrexate, methotrexate], the IC50 in series [2] was determined as 40 nM; in series [3], 60 nM. Moreover, the “Tumour Selectivity Differential Factor” value in series [2] stood at 1.5.
